Consider 97 compounds from PubChem BioAssay AID1159559 (GlaxoSmithKline (GSK), 2015).

Active and inactive are the calls of the source.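 How the source made its calls: active means compounds whose IC50 against parasite growth in infected mouse cells is below 50000 nM; inactive means the rest.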 A value given as a limit tells only on which side of the number the result lay.

For this experiment, the system named is T. cruzi Tulahuen in NIH-3T3, beta-gal fluorescence, 4 d. Put plainly: T. cruzi intracellular growth inhibition, cell-based (AID 1159559).

As usually defined, the IC50 is the concentration at which inhibition is half-maximal.

For the compound `CNC(=O)C1Cc2ccccc2N1C(=O)Cc1ccccc1` (configuration not stated), the IC50 is > 50000 nM (inactive).
With `Cc1ccc(Nc2nc(N)nc(CNC(c3nc4ccccc4[nH]3)C(C)C)n2)cc1` (configuration not stated), the IC50 was 1000 nM.
`CCOc1cc(NCCCN2CCN(C)CC2)c2ncccc2c1`: the 50% inhibitory concentration (IC50) is 1600 nM.
The result for `CCS(=O)(=O)c1cccc(C(=O)Nc2nc(-c3ccccn3)cs2)c1` reads 1600 nM.
The value for `CCS(=O)(=O)Nc1ccc(C2=NN(C(=O)c3cccs3)C(c3ccccc3OC)C2)cc1` (configuration not stated) was 7900 nM.
For `CN(C)S(=O)(=O)c1cccc(C(=O)Nc2nc(-c3ccccn3)cs2)c1`, the half-inhibitory concentration (IC50) is 1300 nM.
The result for `Fc1ccccc1N1C[C@H]2CCN(c3cccnc3)C[C@H]2C1` reads 200 nM; that for `Cc1ccccc1NS(=O)(=O)c1ccc2[nH]cc(C(=O)NC3CCCC3)c(=O)c2c1`, 25000 nM.
The value for `Cc1nc2c(-c3cccs3)c(C)nn2c(NCCO)c1C` was 40000 nM.
As to `N#Cc1cccc(CN2CCC(c3nc(-c4ccc(C(F)(F)F)nc4)no3)CC2)c1`, the IC50 is 2000 nM.
`CC(=O)Nc1ccc(-c2noc(CC3CCCN(Cc4cccc(F)c4C)C3)n2)cc1` (configuration not stated): the IC50 is 1000 nM.
Take `CC(C)S(=O)(=O)c1ccc(-c2cnc(N)c3cc(-c4ccnc(N)n4)ccc23)cc1`: the IC50 is 790 nM.
The result for `O=C(Nc1nc(-c2ccccn2)cs1)C1CCc2ccccc2C1` (configuration not stated) reads 2000 nM.
The result for `O=C(NCc1ccncc1)c1ccccc1N1CCCN(C(=O)Cc2ccc(F)c(F)c2)CC1` reads 130 nM.
The value for `CC(C)(C)c1cc(NC2CC2)nc(-c2ccccn2)n1` was 1300 nM; that for `O=c1cc(NCCCNC2CCOc3c(I)cc(Cl)cc32)[nH]c2ccccc12` (configuration not stated) was 790 nM.
Take `CCOC(=O)c1noc(N)c1-c1ccccc1`: the IC50 was > 50000 nM (inactive).
The result for `O=C(NCC1CCCCC1)c1cnns1` reads 2500 nM.
The value for `CN(Cc1nc2ccccc2s1)C(=O)C=Cc1cc2ccccc2o1` was 630 nM.
The value for `C[C@@H](Oc1cc(-n2cnc3ccc(O[C@H]4CCNC4)cc32)sc1C(N)=O)c1ccccc1Cl` was 3200 nM.
As for `Cc1ccc2nc(N(Cc3cccnc3)C(=O)CCc3ccccc3)sc2c1`, the IC50 is 40 nM.
The value for `COc1cccc(C(=O)[C@H]2C[C@@H]2CN(Cc2cccnc2)Cc2cccnc2)c1` was 100 nM; that for `CCCc1cc(C(=O)Nc2ncc(-c3cccc(Br)c3)n2C)n[nH]1` was 2500 nM.
The result for `COc1cc(-c2noc(CC#N)n2)ccc1OC(F)F` reads 40000 nM.
Regarding `COc1ccc(Nc2nc(NC3CCC(O)CC3)ncc2Br)c(C(N)=O)c1` (configuration not stated), the IC50 is 4000 nM.
Consider `Cc1ccc2c(c1)SC(C(=O)Nc1n[nH]c(-c3ccccn3)n1)C2` (configuration not stated), for which the IC50 was 5000 nM.
For `Cc1c(CNC(=O)c2ccc(Cn3cc(Cl)c([N+](=O)[O-])n3)cc2)cnn1C`, the half-inhibitory concentration (IC50) is 1000 nM.
The value for `CCC(c1ccc(F)cc1)n1cncc1-c1cnn(C)c1` (configuration not stated) was 200 nM; that for `CNC(=O)Oc1ccc(C(=O)NCc2ccccc2)cc1OC(=O)NC` was 32000 nM.
The result for `CNc1cncc(C2CCCN2C(=O)Cc2coc3cc(C)ccc23)n1` (configuration not stated) reads 160 nM.
The result for `COCc1cnc2c(c1SCc1c(F)cccc1Cl)c(=O)n(C)c(=O)n2C` reads > 50000 nM (inactive); that for `COc1ccc(C2C3CCCCC3(O)CCN2CC(=O)Nc2ccc(Cl)cc2Cl)cc1` (configuration not stated), 2500 nM; that for `COc1ncc(-c2ccc3nccc(-c4ccncc4)c3c2)cc1NS(C)(=O)=O`, 1600 nM.
Regarding `O=C(COc1ccccc1)Nc1ccccc1C(=O)Nc1nccs1`, the IC50 is > 50000 nM (inactive).
The result for `CCc1cc(C(=O)Nc2nccn2-c2ccccc2)cs1` reads 3200 nM; that for `Cc1ccc(NC(=O)c2ccc(Cl)c(NC(=O)c3ccc([N+](=O)[O-])cc3)c2)cc1`, 630 nM; that for `O=C(CN(Cc1ccccn1)Cc1ccccn1)NCc1ccc2c(c1)OCO2`, 7900 nM.
`Cc1ccc(C)c(OC2CCN(C(=O)C(C)n3ccnc3)CC2)c1` (configuration not stated): the IC50 is 160 nM.
The value for `CCOc1ccc(CN(C)Cc2nc(N)nc(Nc3ccc(C)cc3)n2)cc1` was 6300 nM; that for `Cc1ccc(C)c(CN2C(=O)NC3(CCc4ccccc43)C2=O)c1` (configuration not stated) was 25000 nM; that for `CC(C)CC(=O)NC(c1cccs1)c1ccc2cccnc2c1O` (configuration not stated) was 1600 nM.
The result for `COc1ccnc2[nH]cc(-c3cc(C(=O)N[C@H](CO)c4ccccc4)co3)c12` reads 1300 nM; that for `O=C1c2cnc(N3CCCC3)nc2CN1c1ccc2c(c1)OCO2`, 2500 nM; that for `Cn1c(CN2CCN(c3ncc(C(F)(F)F)cc3Cl)CC2)nc2ccncc21`, 790 nM.
The value for `Cc1ccc(CNC2CCN(C[C@@H]3Cn4c(=O)ccc5ccc(=O)n3c54)CC2)cc1F` was 1300 nM; that for `O=C1CN(Cc2ccco2)C2CS(=O)(=O)CC2N1c1ccc(Cl)cc1` (configuration not stated) was > 50000 nM (inactive); that for `Cn1nccc1NC(=O)Cn1ccc(-c2ccncc2)n1` was > 50000 nM (inactive).
As to `COc1ccc(C(C)N(C)c2ncc3c(N)nc(N)nc3n2)cc1F` (configuration not stated), the IC50 is 79 nM.
On to `NC(=O)c1ncc(N[C@@H]2CCCNC2)nc1Nc1cccc(Cl)c1`, for which the IC50 is 320 nM.
The value for `c1ccc(Nc2nc(-c3ccccn3)cc(N3CCOCC3)n2)cc1` was 2000 nM.
The result for `CN(C)c1ccc(-c2cc3nccnc3c(OC[C@H]3CCCNC3)n2)cn1` reads 1600 nM.
The value for `Cc1cc(N(C)C)nc2ccc(Cc3cnc(N)nc3N)cc12` was 1300 nM; that for `O=C(Nc1nc(-c2ccc(F)cc2)cs1)c1ccc([N+](=O)[O-])s1` was 200 nM.
For the compound `NS(=O)(=O)c1ccc(CNC(=O)c2ccc([N+](=O)[O-])s2)cc1`, the IC50 is 1000 nM.
The value for `O=C(NCCc1csc(-c2ccc(F)cc2)n1)c1ccco1` was 2000 nM.
`Cc1nc2nc(C)c(Cc3ccc(C(C)C)cc3)c(=O)n2[nH]1`: the IC50 was 500 nM.
In the case of `Cc1nc(-c2nc(NCc3ccc(Cl)cc3)c3cccnc3c2O)n[nH]1`, the concentration for half-maximal inhibition (IC50) was 630 nM.
The value for `CC1CN(Cc2ccc(C#N)cc2)CCN1c1ccc(NC(=O)c2ccccc2F)cc1` (configuration not stated) was 25000 nM; that for `O=C(Nc1nc2ccccc2[nH]1)c1c(O)c2cccc3c2n(c1=O)CC3` was 20000 nM; that for `O=C1NCc2cccc(Nc3nc(NC4CCC(O)CC4)ncc3Br)c21` (configuration not stated) was 630 nM.
The value for `Cc1cc(NC(=O)CC2CCCCC2)n(-c2nc3c(c(=O)[nH]2)CCC3)n1` was 250 nM; that for `O=C(CCCNC(=O)c1ccc(Cl)cc1)Nc1nc(-c2ccccn2)cs1` was 6300 nM; that for `O=C(COc1ncnc2cc([N+](=O)[O-])ccc12)NC(=O)NC1CCCCC1` was 1300 nM.
Consider `Cc1cccnc1NC(=O)c1cccc(OCc2c(C)noc2C)c1`, for which the IC50 was > 50000 nM (inactive).
The value for `COc1ccc(Cc2nc(-c3ncc4cccnc4c3O)n[nH]2)cc1OC` was 1300 nM.
Turning to `Cc1nc(N2CCC(C(=O)N3CCC(O)(c4cccnc4)CC3)CC2)nc2ccc(C(C)C)cc12`, the IC50 is 1600 nM.
On to `CNS(=O)(=O)c1ccccc1Nc1nc(Nc2cc(C)nn2C)ncc1Cl`, for which the IC50 is 400 nM.
On to `CC1CCCCN1C(=O)NCCc1coc(-c2ccc(F)cc2)n1` (configuration not stated), for which the IC50 is 400 nM.
The value for `CC(=O)Nc1ccc(-c2ccnc(Nc3cccc(C#N)c3)n2)cc1` was 6300 nM; that for `Cc1[nH]nc(Nc2ccnc3[nH]ccc23)c1C` was 4000 nM; that for `CCc1nn(-c2ncc(F)c(NC(C)C)n2)c(N)c1C1CCCCC1` was 3200 nM.
The result for `COc1ccc(NS(=O)(=O)c2cc(NC(=O)c3ccc([N+](=O)[O-])s3)ccc2OC)cc1` reads 63 nM; that for `CC(Cn1ccnc1)NC(=O)C1CC1c1cccc(Cl)c1Cl` (configuration not stated), 130 nM; that for `CCn1nccc1CN(C)C(=O)C=Cc1ccc(Cl)cc1`, 200 nM.
On to `COc1ccc(C2=NCC(CSc3nnc(-c4ccc5c(c4)OCO5)o3)S2)cc1` (configuration not stated), for which the IC50 was 2500 nM.
Regarding `CC(C)(C)C(=O)Nc1cc(C2CC2)nn1-c1nc2c(c(=O)[nH]1)CCCC2`, the IC50 was 500 nM.
In the case of `Cn1ccnc1-c1nc(NCc2ccccc2Cl)cc(C2CC2)n1`, the IC50 was 630 nM.
`c1ccc(Nc2nc3ccccc3[nH]2)nc1`: the IC50 is 7900 nM.
The value for `COc1cc(F)c2ncc(F)c(CCN3CC[C@H](NCc4cc5c(cn4)OCS5)[C@@H](O)C3)c2c1` was 400 nM; that for `O=C(NCc1ccc(Cl)cc1)C1CN(C(=O)c2ccc(F)cc2)CCS1` (configuration not stated) was 25000 nM.
The result for `O=C(NCC1CCCCN1C(=O)c1cccc2ccccc12)c1ccccc1` (configuration not stated) reads 6300 nM.
`c1ccc2c(CCOc3nccnc3-c3ccncc3)c[nH]c2c1`: the half-maximal inhibitory concentration (IC50) is 130 nM.
The value for `CCCNC(=O)Nc1cccc(-c2nc3ncccc3o2)c1` was 2500 nM; that for `Nc1cc(-c2ccc3ncnc(N4CCOCC4)c3c2)cnc1N` was 1600 nM.
The value for `COc1ccc(-c2csc(NC(=O)c3ccc([N+](=O)[O-])s3)n2)cc1` was 160 nM; that for `CCCCN(C(=O)c1ccc(NC(=O)C(C)C)cc1)c1ccccc1` was 20000 nM; that for `c1ccc2[nH]c(-c3ccc(N4CCCC4)nc3)nc2c1` was 1000 nM.
The value for `CS(=O)(=O)c1cccc(CNC(=O)c2cncc(N3CCN(c4ccc(F)cc4)CC3)c2)c1` was 630 nM.
Turning to `CS(=O)(=O)NC1CCC(Oc2cc3cnccc3cc2-c2ccsc2)CC1` (configuration not stated), the IC50 is 130 nM.
The value for `COc1ccc(-c2nc3ccncc3c(=O)n2CCOc2ccccc2)cc1` was 630 nM; that for `O=C(NCCNc1noc(-c2ccc([N+](=O)[O-])cc2)n1)c1ccc(Cl)cc1` was 2000 nM; that for `CC(C)Oc1cccc(N2CCC(C(=O)N3CCCN(C(C)C)CC3)CC2)c1` was 1300 nM.
The value for `C=CCOCC1Cn2nc([N+](=O)[O-])nc2O1` (configuration not stated) was 500 nM; that for `O=C1NCCn2ccc(Nc3nc(NC4CCC(O)CC4)ncc3Cl)c21` (configuration not stated) was 6300 nM.
The value for `O=C(CC1(O)C(=O)N(Cc2cccs2)c2ccc(Br)cc21)c1cccnc1` (configuration not stated) was 5000 nM; that for `O=C(CC1(O)C(=O)N(Cc2ccccc2)c2ccc(Br)cc21)c1cccnc1` (configuration not stated) was 5000 nM.
For the compound `O=C(N1CCc2ccccc2CC1)C1(C(=O)N2CCC(n3c(=O)[nH]c4ncccc43)CC2)CC1`, the IC50 was 630 nM.
